Laboratory results published in US20240415832A1 (priority 2021, published 2024).

Assays:
[1] = test system: C57Bl/6 mice; assay: Lack of precipitated withdrawal from oxycodone; settings: for total withdrawal signs: oxycodone mice
[2] = molecular target: D1 (Homo sapiens, UniProt P21728); type: binding
[3] = molecular target: SERT (Homo sapiens, UniProt P31645); type: binding
[4] = molecular target: D2 (Homo sapiens, UniProt P14416); type: binding
[5] = molecular target: 5-HT2A (Homo sapiens, UniProt P28223); type: binding
[6] = test system: C57BL/6J mice; settings: mouse, in vivo

Sequence of 5-HT2A (P28223 whole entry): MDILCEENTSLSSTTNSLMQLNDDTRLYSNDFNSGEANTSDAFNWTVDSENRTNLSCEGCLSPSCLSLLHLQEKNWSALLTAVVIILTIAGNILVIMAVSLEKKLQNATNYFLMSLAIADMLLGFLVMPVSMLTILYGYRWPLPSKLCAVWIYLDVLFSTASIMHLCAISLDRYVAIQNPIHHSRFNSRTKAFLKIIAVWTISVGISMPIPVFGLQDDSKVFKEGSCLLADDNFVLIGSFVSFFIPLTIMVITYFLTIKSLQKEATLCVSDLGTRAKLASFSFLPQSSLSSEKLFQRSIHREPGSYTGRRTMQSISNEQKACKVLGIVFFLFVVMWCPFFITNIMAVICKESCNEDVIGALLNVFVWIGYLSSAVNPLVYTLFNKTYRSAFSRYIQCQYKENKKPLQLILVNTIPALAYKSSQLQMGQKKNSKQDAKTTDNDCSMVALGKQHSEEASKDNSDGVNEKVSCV
Sequence of D1 (P21728 whole entry): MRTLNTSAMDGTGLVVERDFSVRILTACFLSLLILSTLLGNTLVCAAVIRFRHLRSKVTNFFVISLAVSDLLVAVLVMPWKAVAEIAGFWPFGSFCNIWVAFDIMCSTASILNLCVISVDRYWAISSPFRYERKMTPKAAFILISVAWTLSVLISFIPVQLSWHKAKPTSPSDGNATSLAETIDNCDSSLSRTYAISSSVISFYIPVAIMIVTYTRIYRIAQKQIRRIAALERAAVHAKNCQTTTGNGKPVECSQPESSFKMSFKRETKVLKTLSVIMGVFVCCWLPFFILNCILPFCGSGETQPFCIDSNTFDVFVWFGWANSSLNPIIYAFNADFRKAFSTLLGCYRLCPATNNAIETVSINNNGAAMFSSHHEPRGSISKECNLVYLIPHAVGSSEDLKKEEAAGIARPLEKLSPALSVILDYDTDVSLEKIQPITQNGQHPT
Sequence of D2 (P14416 1-414 isoform P14416-2): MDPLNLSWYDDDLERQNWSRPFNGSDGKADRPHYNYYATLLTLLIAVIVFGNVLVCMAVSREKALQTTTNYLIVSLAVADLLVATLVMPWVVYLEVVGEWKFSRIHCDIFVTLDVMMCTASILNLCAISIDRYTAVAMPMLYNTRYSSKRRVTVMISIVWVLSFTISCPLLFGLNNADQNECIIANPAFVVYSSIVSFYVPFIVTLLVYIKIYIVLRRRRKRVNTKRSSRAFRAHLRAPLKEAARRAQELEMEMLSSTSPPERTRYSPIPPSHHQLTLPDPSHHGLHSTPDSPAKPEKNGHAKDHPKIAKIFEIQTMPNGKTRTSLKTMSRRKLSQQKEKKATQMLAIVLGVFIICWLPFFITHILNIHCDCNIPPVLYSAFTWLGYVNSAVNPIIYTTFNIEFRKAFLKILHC
Sequence of SERT (P31645 whole entry, species assumed): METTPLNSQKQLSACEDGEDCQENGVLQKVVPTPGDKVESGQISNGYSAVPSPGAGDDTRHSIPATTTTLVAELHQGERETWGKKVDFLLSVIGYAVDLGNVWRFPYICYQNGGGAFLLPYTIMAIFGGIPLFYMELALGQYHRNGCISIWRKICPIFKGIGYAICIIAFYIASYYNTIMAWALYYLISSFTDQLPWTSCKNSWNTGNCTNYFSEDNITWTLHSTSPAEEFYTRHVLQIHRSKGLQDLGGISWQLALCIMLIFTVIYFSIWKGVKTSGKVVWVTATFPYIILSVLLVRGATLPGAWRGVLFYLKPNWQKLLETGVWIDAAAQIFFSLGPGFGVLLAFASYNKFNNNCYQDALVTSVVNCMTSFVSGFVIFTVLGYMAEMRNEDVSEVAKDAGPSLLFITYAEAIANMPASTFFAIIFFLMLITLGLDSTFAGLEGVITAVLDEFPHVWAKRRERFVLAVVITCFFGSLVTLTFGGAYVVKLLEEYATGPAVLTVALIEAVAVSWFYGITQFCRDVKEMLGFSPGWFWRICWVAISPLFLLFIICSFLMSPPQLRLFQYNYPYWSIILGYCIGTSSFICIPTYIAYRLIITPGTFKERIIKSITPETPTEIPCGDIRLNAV

In the case of `O=C1CN2c3c(cccc3[C@@H]3CN(CCCOc4ccc(F)cc4)CC[C@@H]32)N1` [Example 1, (6bR,10aS)-8-(3-(4-fluorophenoxy)propyl)-6b,7,8,9,10,10a-hexahydro-1H-pyrido[3′,4′:4,5]pyrrolo[1,2,3-de]quinoxalin-2(3H)-one], the “somatic signs or loss of body weight” value ([1]; chronic saline, 17.8 mg/kg s.c., relative to vehicle (p>0.05)) is reported as “does not produce any significant effects”, the “number of paw tremors or jumps” value ([1]; mice chronically administered oxycodone, doses <10 mg/kg s.c., vs vehicle) is reported as “do not differ from mice administered vehicle” and the body weight loss ([1]; mice receiving oxycodone chronically, <10 mg/kg) is reported as “does not induce further body weight loss”. For the same compound, the total withdrawal signs ([1]; at 10 mg/kg, p<0.05, mainly wet dog shakes) was “significantly more total withdrawal signs” and the total withdrawal signs ([1]; escalating doses (3, 10, 17.8 mg/kg s.c.), p<0.0001) was “induced greater total withdrawal signs”.

`O=C1CN2c3c(cccc3[C@@H]3CN(CCCc4n[nH]c5cc(F)ccc45)CC[C@@H]32)N1` [Example 2, (6bR,10aS)-8-(3-(6-fluoro-1H-indazol-3-yl)propyl)-6b,7,8,9,10,10a-hexahydro-1H-pyrido[3′,4′:4,5]pyrrolo[1,2,3-de]quinoxalin-2(3H)-one] was tested, and the Ki [2] was 5.2 nM, the Ki [3] was 540 nM and the Ki [4] was 15 nM. It also gave a Ki [5] of 2.6 nM.

`O=C1CN2c3c(cccc3[C@@H]3CN(CCCc4noc5cc(F)ccc45)CC[C@@H]32)N1` [Example 3, (6bR,10aS)-8-(3-(6-fluorobenzo[d]isoxazol-3-yl)propyl)-6b,7,8,9,10,10a-hexahydro-1H-pyrido[3′,4′:4,5]pyrrolo[1,2,3-de]quinoxalin-2(3H)-one] showed a Ki [2] of 13 nM, a Ki [4] of 84 nM and a Ki [5] of 3.1 nM.

With `C=CCN1CC[C@]23c4c5ccc(O)c4O[C@H]2C(=O)CC[C@@]3(O)[C@H]1C5` [Naloxone] the Jumps [6] was 0, the “Paw Tremors” value [6] was 0.87 and the “Total Number of Signs” value [6] was 2.2. The “body weight loss” value [6] was 0.5%.
